Test results taken from ChEMBL document CHEMBL2073989, “Immunohistochemical distribution and functional characterization of an organic anion transporting polypeptide 2 (oatp2)” (FEBS Lett, 1999).

Biological target: T1, Solute carrier organic anion transporter family member 1A4 (Rattus norvegicus, UniProt O35913)
T1 sequence (O35913 whole entry): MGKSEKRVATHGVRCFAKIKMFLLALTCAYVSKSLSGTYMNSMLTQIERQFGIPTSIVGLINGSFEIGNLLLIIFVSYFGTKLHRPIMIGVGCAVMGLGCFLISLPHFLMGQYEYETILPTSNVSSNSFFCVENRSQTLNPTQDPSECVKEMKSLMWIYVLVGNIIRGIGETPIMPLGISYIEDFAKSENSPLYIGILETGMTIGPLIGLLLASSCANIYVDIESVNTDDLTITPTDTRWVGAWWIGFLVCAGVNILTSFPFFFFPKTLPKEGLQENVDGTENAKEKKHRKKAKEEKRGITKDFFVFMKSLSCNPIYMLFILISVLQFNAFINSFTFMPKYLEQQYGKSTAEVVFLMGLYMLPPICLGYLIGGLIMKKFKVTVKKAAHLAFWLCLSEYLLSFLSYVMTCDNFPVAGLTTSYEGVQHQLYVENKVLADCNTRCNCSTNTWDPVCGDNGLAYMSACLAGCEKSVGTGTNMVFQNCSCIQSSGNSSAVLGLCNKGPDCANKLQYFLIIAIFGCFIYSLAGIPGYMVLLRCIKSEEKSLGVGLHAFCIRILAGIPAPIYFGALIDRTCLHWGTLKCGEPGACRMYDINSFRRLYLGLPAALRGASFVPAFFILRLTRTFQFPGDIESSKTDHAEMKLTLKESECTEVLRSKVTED
Test: TP_TRANSPORTER: uptake in Xenopus laevis oocytes
Format: functional, cell-based
Settings: oocyte

For `O=C(O)CCCC[C@@H]1SC[C@@H]2NC(=O)N[C@@H]21` [BIOTIN], the Activity was “substrate [+]”.
